Patent US7622275B2, “Aequorin as a growth marker in yeast” (Sanofi-Aventis Deutschland GmbH, priority 2001, dated 2009)
Like-named read-outs stand apart in the source and are kept apart here.

Assays:
S. cerevisiae [1] = conditions: 100 μM in SC Glucose-Trp
S. cerevisiae [2] = test: Aequorin growth marker signal upon toxic treatment (pYX132TPI-AEQ strain); format: cell-based, Saccharomyces cerevisiae; conditions: for Aequorin signal: 100 μM in SC Glucose-Trp; for Aequorin difference between toxic treatment and normal growth: 100 μM
Experimental: As a yeast strain W303 MAT a, far::hisG, sst2::URA3^FOA, fus1::HIS3 was used.
The cells are distributed and/or grown in a white 96-well plate, in a volume of 100 μl.
30 minutes before the measurement time point, 10 μl of a 5 μM coelenterazine (Molecular Probes) solution is distributed in each well (to obtain a 0.5 μM final concentration) to load the cells.
The plate is then incubated at 30° C. for the last 30 minutes.
Aequorin detection is made in a luminometer with injecting system (Luminoskan, Labsystems). For each well, immediately after injection of a 10 mM CaCl2 solution (1 M CaCl2 diluted in lysis buffer Y-PER from Pierce), the luminescent signal is integrated for 15 seconds.
To avoid the intermediate step of loading, it is possible to introduce coelenterazine in the medium at the beginning of the assay: coelenterazine is added at a concentration of 0.5 μM.
(i.e. only half of the normal signal), and the starving cells give a signal of 64 r.l.u.

S. cerevisiae [3] = tested on: S. cerevisiae

O=C1Cc2cc(CCN3CCN(c4nsc5ccccc45)CC3)c(Cl)cc2N1 [Ziprasidone]
β-Galactosidase signal (S. cerevisiae [1]; after 5 hours of treatment, normal growth 276, starving cells 64): 116 r.l.u.
β-Galactosidase signal (S. cerevisiae [1]; after 24 hours treatment, non treated cells 2275): 1923 r.l.u.
Aequorin signal (S. cerevisiae [2]; after 5 hours of treatment, normal growth 138, starving cells 16): 10 r.l.u.
Aequorin signal (S. cerevisiae [2]; after 24 hours treatment, normal growth 175): 50 r.l.u.
Aequorin difference between toxic treatment and normal growth (S. cerevisiae [2]; after 5 hours of treatment): 10 fold
Aequorin difference between toxic treatment and normal growth (S. cerevisiae [2]; after 24 hours treatment): 3.5 fold
toxic effects on S. cerevisiae (S. cerevisiae [3]): high toxic effects
OD630 (S. cerevisiae [3]; 100 μM in SC Glucose-Trp, after 24 hours treatment, normal growth over 1): 0.5-0.7
